{"source": "paper PMC2994217", "about": "(British Journal of Cancer, 2010)", "key": {"[1]": {"conditions": "no reference given, cited from earlier work"}, "[2]": {"experiment": "Pharmacokinetics of sirolimus in blood (LC/MS/MS, non-compartmental)", "format": "in vivo, patients", "conditions": "for Cmax / AUC(0-t) / half-life: human, whole blood; for half-life: read-out: t ½ (converted)", "from_the_text": "(§1) A paired t-test on log-transformed values was used to calculate changes in AUC, Cmax and t1/2. A P-value ⩽0.05 was considered significant."}, "[3]": {"conditions": "oral", "description": "Patients were initially treated in cohorts of six per dose level. […] Both drugs were administered orally. […] (Figure 1) The duration of one cycle was 28 days.\nToxicity was evaluated according to the common toxicity criteria for adverse events (AEs) (CTCAEv3.0)."}, "[4]": {"experiment": "Pharmacokinetics of sorafenib in plasma (LC/MS/MS, non-compartmental)", "format": "in vivo, patients", "conditions": "for Cmax: human, plasma", "from_the_text": "as §1"}, "[5]": {"conditions": "im, 1 mg, DL IM, sor 400 mg b.i.d., sir 1 mg q.d., cycle 1 day 1, single-dose sir, geometric mean (95% CI), n=3"}, "[6]": {"conditions": "im, DL IM, sor 400 mg b.i.d., sir 1 mg q.d., cycle 1 day 16, continuous dosing sor on single-dose sir, geometric mean (95% CI), n=3"}, "[7]": {"conditions": "oral, 1 mg, DL 0, sor 200 mg b.i.d., sir 1 mg q.d., cycle 1 day 1, single-dose sir, geometric mean (95% CI), n=6"}, "[8]": {"conditions": "oral, 2 mg, DL 1, Sor 200 mg b.i.d., sir 2 mg q.d., cycle 1 day 1, single-dose sir, geometric mean (95% CI), n=6"}, "[9]": {"conditions": "oral, DL 0, sor 200 mg b.i.d., sir 1 mg q.d., cycle 1 day 16, continuous dosing sor on single-dose sir, geometric mean (95% CI), n=6"}, "[10]": {"conditions": "oral, DL 1, Sor 200 mg b.i.d., sir 2 mg q.d., cycle 1 day 16, continuous dosing sor on single-dose sir, geometric mean (95% CI), n=6"}}, "note": "Read-outs that look alike come from different tables or passages of the source."}
{"smiles": "CO[C@H]1C[C@@H]2CC[C@@H](C)[C@@](O)(O2)C(=O)C(=O)N2CCCC[C@H]2C(=O)O[C@H]([C@H](C)C[C@@H]2CC[C@@H](O)[C@H](OC)C2)CC(=O)[C@H](C)/C=C(\\C)[C@@H](O)[C@@H](OC)C(=O)[C@H](C)C[C@H](C)/C=C/C=C/C=C/1C", "note": "[sirolimus]", "values": [{"measurement": "time until mean steady-state concentrations are achieved", "setting": "[1]", "value": "5 to 7", "unit": "days"}, {"measurement": "terminal half-life", "setting": "[1]; stable renal transplant recipients", "value": "62 ± 12", "unit": "h"}, {"measurement": "change in mean AUC(0−96 h) of sirolimus", "setting": "[2]; DL 0, simultaneous administration of both drugs, P=0.955", "value": "no change"}, {"measurement": "average reduction of Cmax of sirolimus", "setting": "[2]; DL 0, non-significant, P=0.515", "value": 18, "unit": "%"}, {"measurement": "mean decrease of Cmax of sirolimus", "setting": "[2]; DL 1, pre-treatment with 200 mg b.i.d. sorafenib, P=0.006", "value": 55, "unit": "%"}, {"measurement": "change of mean terminal half-life of sirolimus", "setting": "[2]; DL 1, pre-treatment with 200 mg b.i.d. sorafenib, P=0.66", "value": "remained unchanged"}, {"measurement": "decrease of AUC(0−96 h) of sirolimus", "setting": "[2]; DL 1, pre-treatment with 200 mg b.i.d. sorafenib, non-significant, P=0.125", "value": 37, "unit": "%"}, {"measurement": "average decrease of Cmax of sirolimus", "setting": "[2]; DLim, P=0.027", "value": 55, "unit": "%"}, {"measurement": "average decrease of AUC(0−96 h) of sirolimus", "setting": "[2]; DLim, P=0.363", "value": 25, "unit": "%"}, {"measurement": "Cmax", "setting": "[2]; [5]", "value": 7.99, "unit": "ng/mL"}, {"measurement": "AUC(0-t)", "setting": "[2]; im, 1 mg, DL IM, sor 400 mg b.i.d., sir 1 mg q.d., cycle 1 day 1, single-dose sir, geometric mean (95% CI), n=3, read-out: AUC(0–96 h)", "value": 139, "unit": "ng·h/mL"}, {"measurement": "half-life", "setting": "[2]; [5]", "value": 38.3, "unit": "h"}, {"measurement": "AUC(0-t)", "setting": "[2]; im, AUC(0–12 h), DL IM, sor 400 mg b.i.d., sir 1 mg q.d., cycle 2 day 1, continuous sor on continuous sir, geometric mean (95% CI), n=2", "value": 101, "unit": "ng·h/mL"}, {"measurement": "AUC(0-t)", "setting": "[2]; im, AUC(0–12 h), DL IM, sor 400 mg b.i.d., sir 1 mg q.d., cycle 2 day 15, continuous sor on continuous sir, n=2", "value": 113, "unit": "ng·h/mL"}, {"measurement": "Cmax", "setting": "[2]; [6]", "value": 3.62, "unit": "ng/mL"}, {"measurement": "AUC(0-t)", "setting": "[2]; im, DL IM, sor 400 mg b.i.d., sir 1 mg q.d., cycle 1 day 16, continuous dosing sor on single-dose sir, geometric mean (95% CI), n=3, read-out: AUC(0–96 h)", "value": 104, "unit": "ng·h/mL"}, {"measurement": "half-life", "setting": "[2]; [6]", "value": 32.9, "unit": "h"}, {"measurement": "Cmax", "setting": "[2]; im, DL IM, sor 400 mg b.i.d., sir 1 mg q.d., cycle 2 day 1, continuous sor on continuous sir, geometric mean (95% CI), n=2", "value": 11.2, "unit": "ng/mL"}, {"measurement": "Cmax", "setting": "[2]; im, DL IM, sor 400 mg b.i.d., sir 1 mg q.d., cycle 2 day 15, continuous sor on continuous sir, geometric mean (95% CI), n=2", "value": 13.7, "unit": "ng/mL"}, {"measurement": "Cmax", "setting": "[2]; [7]", "value": 3.81, "unit": "ng/mL"}, {"measurement": "AUC(0-t)", "setting": "[2]; oral, 1 mg, DL 0, sor 200 mg b.i.d., sir 1 mg q.d., cycle 1 day 1, single-dose sir, geometric mean (95% CI), n=6, read-out: AUC(0–96 h)", "value": 91.1, "unit": "ng·h/mL"}, {"measurement": "half-life", "setting": "[2]; [7]", "value": 45.5, "unit": "h"}, {"measurement": "Cmax", "setting": "[2]; [8]", "value": 5.74, "unit": "ng/mL"}, {"measurement": "AUC(0-t)", "setting": "[2]; oral, 2 mg, DL 1, Sor 200 mg b.i.d., sir 2 mg q.d., cycle 1 day 1, single-dose sir, geometric mean (95% CI), n=6, read-out: AUC(0–96 h)", "value": 124, "unit": "ng·h/mL"}, {"measurement": "half-life", "setting": "[2]; [8]", "value": 50.5, "unit": "h"}, {"measurement": "AUC(0-t)", "setting": "[2]; oral, AUC(0–12 h), DL 0, sor 200 mg b.i.d., sir 1 mg q.d., cycle 2 day 1, continuous sor on continuous sir, geometric mean (95% CI), n=6", "value": 59.4, "unit": "ng·h/mL"}, {"measurement": "AUC(0-t)", "setting": "[2]; oral, AUC(0–12 h), DL 0, sor 200 mg b.i.d., sir 1 mg q.d., cycle 2 day 15, continuous sor on continuous sir, geometric mean (95% CI), n=6", "value": 57.8, "unit": "ng·h/mL"}, {"measurement": "AUC(0-t)", "setting": "[2]; oral, AUC(0–12 h), DL 1, Sor 200 mg b.i.d., sir 2 mg q.d., cycle 2 day 1, continuous sor on continuous sir, geometric mean (95% CI), n=4", "value": 88.2, "unit": "ng·h/mL"}, {"measurement": "AUC(0-t)", "setting": "[2]; oral, AUC(0–12 h), DL 1, Sor 200 mg b.i.d., sir 2 mg q.d., cycle 2 day 15, continuous sor on continuous sir, n=1", "value": 84.6, "unit": "ng·h/mL"}, {"measurement": "Cmax", "setting": "[2]; [9]", "value": 3.14, "unit": "ng/mL"}, {"measurement": "AUC(0-t)", "setting": "[2]; oral, DL 0, sor 200 mg b.i.d., sir 1 mg q.d., cycle 1 day 16, continuous dosing sor on single-dose sir, geometric mean (95% CI), n=6, read-out: AUC(0–96 h)", "value": 91.7, "unit": "ng·h/mL"}, {"measurement": "half-life", "setting": "[2]; [9]", "value": 56.2, "unit": "h"}, {"measurement": "Cmax", "setting": "[2]; oral, DL 0, sor 200 mg b.i.d., sir 1 mg q.d., cycle 2 day 1, continuous sor on continuous sir, geometric mean (95% CI), n=6", "value": 6.3, "unit": "ng/mL"}, {"measurement": "Cmax", "setting": "[2]; oral, DL 0, sor 200 mg b.i.d., sir 1 mg q.d., cycle 2 day 15, continuous sor on continuous sir, geometric mean (95% CI), n=6", "value": 6.36, "unit": "ng/mL"}, {"measurement": "Cmax", "setting": "[2]; [10]", "value": 2.6, "unit": "ng/mL"}, {"measurement": "AUC(0-t)", "setting": "[2]; oral, DL 1, Sor 200 mg b.i.d., sir 2 mg q.d., cycle 1 day 16, continuous dosing sor on single-dose sir, geometric mean (95% CI), n=6, read-out: AUC(0–96 h)", "value": 78.2, "unit": "ng·h/mL"}, {"measurement": "half-life", "setting": "[2]; [10]", "value": 52.5, "unit": "h"}, {"measurement": "Cmax", "setting": "[2]; oral, DL 1, Sor 200 mg b.i.d., sir 2 mg q.d., cycle 2 day 1, continuous sor on continuous sir, geometric mean (95% CI), n=5", "value": 10, "unit": "ng/mL"}, {"measurement": "Cmax", "setting": "[2]; oral, DL 1, Sor 200 mg b.i.d., sir 2 mg q.d., cycle 2 day 15, continuous sor on continuous sir, n=2", "value": 17.6, "unit": "ng/mL"}, {"measurement": "effect of sorafenib on AUC(0−96) and Cmax of sirolimus", "setting": "[2]; overall statement of abstract", "value": "reduced"}, {"measurement": "MTD of the combination, sirolimus dose", "setting": "[3]; combined with sorafenib 200 mg b.i.d.", "value": 1, "unit": "mg q.d."}]}
{"smiles": "CNC(=O)c1cc(Oc2ccc(NC(=O)Nc3ccc(Cl)c(C(F)(F)F)c3)cc2)ccn1", "note": "[sorafenib]", "values": [{"measurement": "elimination half-life", "setting": "[1]", "value": "25 to 48", "unit": "h"}, {"measurement": "MTD of the combination, sorafenib dose", "setting": "[3]; combined with sirolimus 1 mg q.d.", "value": 200, "unit": "mg b.i.d."}, {"measurement": "AUC(0–12 h)", "setting": "[4]; DL 1, Sor 200 mg b.i.d., sir 2 mg q.d, cycle 2 day 1, continuous sir on continuous sor, geometric mean (95% CI), n=4", "value": "39.3 (21–74) (n=4) mg h l^−1"}, {"measurement": "mean decrease in AUC(0−12 h) of sorafenib", "setting": "[4]; DLim, 1 mg sirolimus with 400 mg b.i.d. sorafenib, non-significant, P=0.14", "value": 15, "unit": "%"}, {"measurement": "mean decrease in Cmax of sorafenib", "setting": "[4]; DLim, 1 mg sirolimus with 400 mg b.i.d. sorafenib, non-significant, P=0.57", "value": 8, "unit": "%"}, {"measurement": "Cmax", "setting": "[4]; im, 400 mg b.i.d., DL IM, Sor 400 mg b.i.d., sir 1 mg q.d., cycle 1 day 15, continuous dosing sor, geometric mean (95% CI), n=4", "value": 13000, "unit": "ng/mL"}, {"measurement": "Cmax", "setting": "[4]; im, DL IM, Sor 400 mg b.i.d., sir 1 mg q.d., cycle 1 day 16, single-dose sir on continuous dosing sor, geometric mean (95% CI), n=4", "value": 11900, "unit": "ng/mL"}, {"measurement": "Cmax", "setting": "[4]; im, DL IM, Sor 400 mg b.i.d., sir 1 mg q.d., cycle 2 day 1, continuous sir on continuous sor, geometric mean (95% CI), n=4", "value": 6640, "unit": "ng/mL"}, {"measurement": "Cmax", "setting": "[4]; im, DL IM, Sor 400 mg b.i.d., sir 1 mg q.d., cycle 2 day 15, continuous sir on continuous sor, geometric mean (95% CI), n=2", "value": 5550, "unit": "ng/mL"}, {"measurement": "Cmax", "setting": "[4]; oral, 200 mg b.i.d., DL 0, Sor 200 mg b.i.d., sir 1 mg q.d., cycle 1 day 15, continuous dosing sor, geometric mean (95% CI), n=6", "value": 7590, "unit": "ng/mL"}, {"measurement": "Cmax", "setting": "[4]; oral, DL 0, Sor 200 mg b.i.d., sir 1 mg q.d., cycle 2 day 1, continuous sir on continuous sor, geometric mean (95% CI), n=6", "value": 7120, "unit": "ng/mL"}, {"measurement": "Cmax", "setting": "[4]; oral, DL 0, Sor 200 mg b.i.d., sir 1 mg q.d., cycle 2 day 15, continuous sir on continuous sor, geometric mean (95% CI), n=6", "value": 7320, "unit": "ng/mL"}, {"measurement": "Cmax", "setting": "[4]; oral, DL 1, Sor 200 mg b.i.d., sir 2 mg q.d, cycle 2 day 1, continuous sir on continuous sor, geometric mean (95% CI), n=4", "value": 5150, "unit": "ng/mL"}, {"measurement": "effect of sirolimus on the PK of sorafenib", "setting": "[4]; overall statement of abstract", "value": "did not change"}, {"measurement": "influence of sirolimus on AUC(0−12 h) of sorafenib", "setting": "[4]; single oral doses of 1 mg or 2 mg sirolimus, sorafenib 200 mg b.i.d. multiple dosing, P=0.67", "value": "did not influence"}, {"measurement": "influence of sirolimus on Cmax of sorafenib", "setting": "[4]; single oral doses of 1 mg or 2 mg sirolimus, sorafenib 200 mg b.i.d. multiple dosing, P=0.96", "value": "did not influence"}]}
